Measured values: PubChem BioAssay AID1259411 (Chemical Carcinogenesis Research Information System (CCRIS), 2018)
Active and inactive are the calls of the source. No rule for the calls is given here.

Tested on: rodent carcinogenicity bioassays, tumor incidence
Experiment: CCRIS carcinogenicity studies
Conditions: Dose: 0, Dose: 0
How it was run: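 NCI-built, expert-reviewed records of carcinogenicity and related test outcomes (mutagenicity, tumor promotion/inhibition) compiled from published and report sources, historical span 1985-2011, not updated.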

## O=c1ccc(O)n[nH]1
Species: Mouse, Strain/Sex: Charles River CD-1/Female (50/Group), Route: Oral, 189, 598, 1811 mg/kg/day of 90% maleic hydrazide potassium salt in diet for 98 wk, study duration 98 wk, 189, 598, 1811 mg/kg/day of 90% maleic hydrazide potassium salt in diet for 98 wk, study duration 98 wk
  carcinogen call: inactive; negative
Species: Mouse, Strain/Sex: Charles River CD-1/Male (50/Group), Route: Oral, 157, 509, 1545 mg/kg/day of 90% maleic hydrazide potassium salt in diet for 98 wk, study duration 98 wk, 157, 509, 1545 mg/kg/day of 90% maleic hydrazide potassium salt in diet for 98 wk, study duration 98 wk
  carcinogen call: inactive; negative
Species: Rat, Strain/Sex: Sprague-Dawley/Female (50/Group), Route: Oral, 25, 500, 1000 mg/kg/day of 72.5-73.8% as maleic hydrazide in diet for 104 wk, study duration 104 wk, 25, 500, 1000 mg/kg/day of 72.5-73.8% as maleic hydrazide in diet for 104 wk, study duration 104 wk
  carcinogen call: inactive; negative
Species: Rat, Strain/Sex: Sprague-Dawley/Male (50/Group), Route: Oral, 25, 500, 1000 mg/kg/day of 72.5-73.8% as maleic hydrazide in diet for 104 wk, study duration 104 wk, 25, 500, 1000 mg/kg/day of 72.5-73.8% as maleic hydrazide in diet for 104 wk, study duration 104 wk
  carcinogen call: inactive; negative

## O=P1(O)OP(=O)(O)OP(=O)(O)O1
Species: RAT, Strain/Sex: F344/FEMALE, Route: ORAL, 1.5, 3% IN DIET FOR DURATION OF STUDY (STUDY DURATION: 108 WK), 1.5, 3% IN DIET FOR DURATION OF STUDY (STUDY DURATION: 108 WK)
  carcinogen call: inactive; negative
Species: RAT, Strain/Sex: F344/MALE, Route: ORAL, 1.5, 3% IN DIET FOR DURATION OF STUDY (STUDY DURATION: 108 WK), 1.5, 3% IN DIET FOR DURATION OF STUDY (STUDY DURATION: 108 WK)
  carcinogen call: inactive; negative

## CCCCCCN(C)N=O
Species: HAMSTER, Strain/Sex: SYRIAN/FEMALE, Route: GAVAGE, 6.2 MG/KG 1/WK FOR 50 WK (TOTAL DOSE: 0; 2.1 MMOL) (STUDY DURATION: LIFETIME), 6.2 MG/KG 1/WK FOR 50 WK (TOTAL DOSE: 0; 2.1 MMOL) (STUDY DURATION: LIFETIME), Tumor Site: Type of Lesion: LIVER: CHOLANGIOMA, LUNG: ALVEOLAR/BRONCHIAL CARCINOMA, ALVEOLAR/BRONCHIAL ADENOMA, URINARY BLADDER: TRANSITIONAL CELL C, Tumor Site: Type of Lesion: LIVER: CHOLANGIOMA, LUNG: ALVEOLAR/BRONCHIAL CARCINOMA, ALVEOLAR/BRONCHIAL ADENOMA, URINARY BLADDER: TRANSITIONAL CELL C
  carcinogen call: active; positive
Species: HAMSTER, Strain/Sex: SYRIAN/MALE, Route: GAVAGE, 6.2 MG/KG 1/WK FOR 50 WK (TOTAL DOSE: 0; 2.1 MMOL) (STUDY DURATION: LIFETIME), 6.2 MG/KG 1/WK FOR 50 WK (TOTAL DOSE: 0; 2.1 MMOL) (STUDY DURATION: LIFETIME), Tumor Site: Type of Lesion: LIVER: HEPATOCELLULAR ADENOMA, CHOLANGIOMA, HEMANGIOSARCOMA, LUNG: ALVEOLAR/ BRONCHIAL ADENOMA, NASAL MUCOSA: CARCINOMA,, Tumor Site: Type of Lesion: LIVER: HEPATOCELLULAR ADENOMA, CHOLANGIOMA, HEMANGIOSARCOMA, LUNG: ALVEOLAR/ BRONCHIAL ADENOMA, NASAL MUCOSA: CARCINOMA
  carcinogen call: active; positive
Species: RAT, Strain/Sex: F344/FEMALE, Route: INTRAVESICULAR, 3.75 MG IN 0.4 ML ETHANOL: DEIONIZED WATER (1:3) 2/WK FOR 30 WK (TOTAL DOSE 1.6 MMOL) (STUDY DURATION: LIFESPAN), Tumor Site: Type of Lesion: BLADDER: TUMOR, LUNG: SQUAMOUS CELL CARCINOMA, UTERUS: TUMOR, Tumor Site: Type of Lesion: BLADDER: TUMOR, LUNG: SQUAMOUS CELL CARCINOMA, UTERUS: TUMOR
  carcinogen call: active; positive

## Clc1cnc(Oc2ccc(Oc3ncc(Cl)cc3Cl)cc2)c(Cl)c1
Species: MOUSE, Strain/Sex: C57BL/MALE, Route: INTRAGASTRIC, 3 MG/KG BW IN CORN OIL 1/2 WK FOR 24 WK (STUDY DURATION: 55 WK), Tumor Site: Type of Lesion: LIVER: HEPATOCELLULAR ADENOMA OR CARCINOMA
  carcinogen call: active; positive
Species: MOUSE, Strain/Sex: C57BL/MALE, Route: INTRAPERITONEAL, 3 MG/KG BW IN CORN OIL 1/2 WK FOR 24 WK (STUDY DURATION: 55 WK), Tumor Site: Type of Lesion: LIVER: HEPATOCELLULAR ADENOMA OR CARCINOMA
  carcinogen call: active; positive
Species: MOUSE, Strain/Sex: DBA/MALE, Route: INTRAGASTRIC, 3 MG/KG BW IN CORN OIL 1/2 WK FOR 24 WK (STUDY DURATION: 55 WK)
  carcinogen call: active; positive
Species: MOUSE, Strain/Sex: DBA/MALE, Route: INTRAPERITONEAL, 3 MG/KG BW IN CORN OIL 1/2 WK FOR 24 WK (STUDY DURATION: 55 WK), Tumor Site: Type of Lesion: LIVER: HEPATOCELLULAR ADENOMA OR CARCINOMA
  carcinogen call: active; positive
Species: RAT, Strain/Sex: F344/MALE, Route: INTRAGASTRIC, 30 MG/KG IN CORN OIL 1/2 WK FOR 71 WK (STUDY DURATION: 73 WK)
  carcinogen call: inactive; negative
Species: RAT, Strain/Sex: F344/MALE, Route: INTRAPERITONEAL, 30 MG/KG IN CORN OIL 1/2 WK FOR 71 WK (STUDY DURATION: 73 WK)
  carcinogen call: inactive; negative

## CC(=O)CC(C)C
Species: Mouse, Strain/Sex: B6C3F1/N/Female, Route: Inhalation, 450, 900, 1800 ppm 6 hr and 12 min/day, 5 d/wk for 105 wks, 450, 900, 1800 ppm 6 hr and 12 min/day, 5 d/wk for 105 wks, Tumor Site: Type of Lesion: Liver: Hepatocellular adenoma (13/50, 15/50, 20/50, 23/50), Hepatocellular carcinoma (6/50, 5/50, 6/50, 11/50), Hepatoce, Tumor Site: Type of Lesion: Liver: Hepatocellular adenoma (13/50, 15/50, 20/50, 23/50), Hepatocellular carcinoma (6/50, 5/50, 6/50, 11/50), Hepatoce
  carcinogen call: equivocal
Species: Mouse, Strain/Sex: B6C3F1/N/Male, Route: Inhalation, 450, 900, 1800 ppm 6 hr and 12 min/day, 5 d/wk for 105 wks, 450, 900, 1800 ppm 6 hr and 12 min/day, 5 d/wk for 105 wks, Tumor Site: Type of Lesion: Liver: Hepatocellular adenoma (17/50, 25/50, 23/50, 34/50), Hepatocellular carcinoma (12/50, 12/50, 10/50, 9/50), Hepato, Tumor Site: Type of Lesion: Liver: Hepatocellular adenoma (17/50, 25/50, 23/50, 34/50), Hepatocellular carcinoma (12/50, 12/50, 10/50, 9/50), Hepato
  carcinogen call: active; positive (ntp describes as some evidence)
Species: Rat, Strain/Sex: F344/N/Female, Route: Inhalation, 450, 900, 1800 ppm 6 hr and 12 min/d, 5 d/wk for 104 wks, 450, 900, 1800 ppm 6 hr and 12 min/d, 5 d/wk for 104 wks, Tumor Site: Type of Lesion: Mesenchymal tumor malignant: (0/50, 0/50, 0/50, 2/50)
  carcinogen call: equivocal
Species: Rat, Strain/Sex: F344/N/Male, Route: Inhalation, 450, 900, 1800 ppm 6 hr and 12 min/d, 5 d/wk for 104 wks, 450, 900, 1800 ppm 6 hr and 12 min/d, 5 d/wk for 104 wks, Tumor Site: Type of Lesion: Kidney: Renal tubule adenoma (2/50, 3/50, 3/50, 10/50), Renal tubule carcinoma (0/50, 1/50, 0/50, 2/50), Renal tubule ad, Tumor Site: Type of Lesion: Kidney: Renal tubule adenoma (2/50, 3/50, 3/50, 10/50), Renal tubule carcinoma (0/50, 1/50, 0/50, 2/50), Renal tubule ad
  carcinogen call: active; positive (ntp describes as some evidence)

## CC(=O)Nc1cc(NS(=O)(=O)C(F)(F)F)c(C)cc1C
Species: Mouse, Strain/Sex: Strain not specified by Department of Pesticide Regulation/Female (60/Group), Route: Oral, 600, 1800, 6000 ppm of 93% mefluidide in diet for 18-19 mo, study duration 19 mo, 600, 1800, 6000 ppm of 93% mefluidide in diet for 18-19 mo, study duration 19 mo
  carcinogen call: inactive; negative
Species: Mouse, Strain/Sex: Strain not specified by Department of Pesticide Regulation/Male (60/Group), Route: Oral, 600, 1800, 6000 ppm of 93% mefluidide in diet for 18-19 mo, study duration 19 mo, 600, 1800, 6000 ppm of 93% mefluidide in diet for 18-19 mo, study duration 19 mo
  carcinogen call: inactive; negative

## ClC1=C(Cl)C2(Cl)C3C(Cl)C(Cl)CC3C1(Cl)C2(Cl)Cl (stereo unspecified)
Species: MOUSE, Strain/Sex: C57B1/MALE, Route: ORAL, 50 PPM IN DIET FOR 24 MO (STUDY DURATION: 24 MO), Tumor Site: Type of Lesion: LIVER: ADENOMA OR CARCINOMA
  carcinogen call: active; positive
Species: MOUSE, Strain/Sex: ICR/FEMALE, Route: ORAL, 1, 5, 12.5 PPM IN DIET FOR 104 WK (STUDY DURATION: 104 WK), 1, 5, 12.5 PPM IN DIET FOR 104 WK (STUDY DURATION: 104 WK)
  carcinogen call: inactive; negative
Species: MOUSE, Strain/Sex: ICR/MALE, Route: ORAL, 1, 5, 12.5 PPM IN DIET FOR 104 WK (STUDY DURATION: 104 WK), 1, 5, 12.5 PPM IN DIET FOR 104 WK (STUDY DURATION: 104 WK), Tumor Site: Type of Lesion: LIVER: ADENOMA, HEMANGIOMA
  carcinogen call: active; positive
Species: RAT, Strain/Sex: F344/FEMALE, Route: ORAL, 1, 5, 25 PPM IN DIET FOR 130 WK (STUDY DURATION: 130 WK), 1, 5, 25 PPM IN DIET FOR 130 WK (STUDY DURATION: 130 WK), Tumor Site: Type of Lesion: MAMMARY GLAND: FIBROADENOMA
  carcinogen call: active; positive
Species: RAT, Strain/Sex: F344/MALE, Route: ORAL, 1, 5, 25 PPM IN DIET FOR 130 WK (STUDY DURATION: 130 WK), 1, 5, 25 PPM IN DIET FOR 130 WK (STUDY DURATION: 130 WK), Tumor Site: Type of Lesion: LIVER: NODULE
  carcinogen call: active; positive
